Source: PubChem BioAssay AID1918948 (Molecular Pharmacology Branch, DTP, NCI, 2023)

System: K-562 leukemia growth, % test/control
Test: Anticancer human tumor K-562 cell line growth inhibition;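 note: spheroids exposed to compounds for 7 days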;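 for viability, T/C: 100% = DMSO vehicle wells and lower values mean fewer viable cells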
Details: spheroids with HUVEC and MSC; for IC50: curve of first compound; for viability, T/C: stronger effect = lower value
Text: Multicellular complex tumor spheroid response to LSD1 Inhibitor Iadademstat in combination with a variety of drugs and investigational agents in selected tumor cell lines
The current study was undertaken to assess response to LSD1 inhibitors in combination with standard-of-care drugs and investigational agents in solid tumor complex spheroid models as well as in the K-562 leukemia. Complex spheroids include a stromal component modeled by human endothelial cells (HUVEC) and fibroblasts modeled by human mesenchymal stem cells (MSCs). The concentration ranges selected for each drug and investigational agent were based upon clinically achievable concentrations if the clinical Cmax of the agent was known.
Compounds. The drugs and investigational agents used in this study are listed on Table 1. All of the agents used, including staurosporine (NSC755774) and gemcitabine (NSC613327), were obtained from the Developmental Therapeutics Program, NCI. FDA-approved anticancer drugs are available from the NCI at http://dtp.nci.nih.gov/branches/dscb/oncology_drugset_explanation.html. Drugs and investigational agents were >95% pure by proton nuclear magnetic resonance (NMR) and liquid chromatography/mass spectrometry (LC/MS). Stock solutions were prepared at 400x in DMSO, stored at -70 degrees C, and diluted in fresh medium prior to their use. The final concentration of DMSO in cell culture wells never exceeded 0.25% (v/v). The FDA-approved anticancer drug set is available from the Developmental Therapeutics Program at https://dtp.cancer.gov/organization/dscb/obtaining/available_plates.htm. All drugs and investigational agents were tested over a range starting from a high concentration at or near the clinical Cmax and decreasing in half-log increments. If the clinical Cmax for an agent had not been determined, the highest concentration tested was 10 microM.
Cell Lines. The patient-derived cancer cell (PDC) lines: 292921-168-R-J2-PDC, K24384-001-R-PDC, and 521955-158-R2-J5-PDC pancreatic carcinomas, 556581-035-R-J1 ovarian carcinoma, 324938-238-R-J1-PDC, 855422-203-R-J1-PDC and 883617-216-R-J1-PDC urothelial bladder carcinomas, 743489-274-T-PDC renal cell carcinoma, 138582-R-J1 Merkel cell tumor, K60290-347-R-J1 and K57222-313-R-J1-PDC glioblastomas, 653999-131-R-J2-PDC, LG0703-F948-PDC, and 349418-098-R-PDC non-small cell lung carcinomas, 885512-296-R-J2-PDC, 171881-019-R-J1-PDC breast carcinomas and 186277-243-T-J2-PDC and 233499-124-R-J2-PDC colon carcinomas were obtained from the NCI Patient-Derived Models Repository (PDMR, https://pdmr.cancer.gov). The established cell lines NCI/ADR-RES (RRID:CVCL_14520 and OVCAR-5 (RRID:CVCL_1628) ovarian carcinomas, 786-O (RRID:CVCL_1051) and A498 (RRID:CVCL_A498) renal cell carcinoma, NCI-H211 (ATCC, cat. CRL-5824; RRID:CVCL_1529), NCI-H196 (ATCC, cat. CRL-5823, RRID:CVCL_1509), SW 1271 (ATCC, cat. CRL-2177, RRID:CVCL_1716) and NCI-H1876 (ATCC, cat. CRL-5902, RRID:CVCL_1503) small cell lung carcinomas, MDA-MB-231 (RRID:CVCL_0062) and MDA-MB-468 (RRID:CVCL_0419)breast carcinomas (10-12). Pooled donor human umbilical vein endothelial cells (HUVEC, Lonza, cat. CC-2519) and human mesenchymal stem cells (hMSC, Lonza, cat. PT-2501) were purchased from Lonza (Walkersville, MD).
Cell Culture. All cells were maintained in an incubator at 37 degrees C and 5% CO2 with 95% humidity. The PDC lines were cultured according to standard operating procedures established by the NCI PDMR (https://pdmr.cancer.gov). Briefly all PDCs were thawed and cultured in Matrigel-coated flasks prepared with a working solution of 1X Ham's F-12 nutrient mix, without supplementation (Invitrogen, Waltham, MA, cat. 11765054), 100 U/mL penicillin-streptomycin (Invitrogen, cat. 15140122), and 2.5% Matrigel (Corning Inc., Corning, NY, cat. 354248) for the first three passages. […]

`COc1cc(C2c3cc4c(cc3C(OC3OC5COC(C)OC5C(O)C3O)C3COC(=O)C23)OCO4)cc(OC)c1O` (stereo not given) + NC1CC1c1ccc(-c2cccc(O)c2)cc1 gave an IC50 (second compound 0.1 µM) of 32.3 nM, an IC50 (second compound 0.316 µM) of 29.2 nM and an IC50 (second compound 1 µM) of 25.2 nM. It also gave an IC50 (second compound 3.16 µM) of 21.1 nM, an IC50 (second compound 10 µM) of 12.4 nM and a viability, T/C (second compound 0.1 µM, first compound 0.00949 µM) of 89.1%. The viability, T/C (second compound 0.1 µM, first compound 0.03 µM) was 34.1%, the viability, T/C (second compound 0.1 µM, first compound 0.0949 µM) was 40% and the viability, T/C (second compound 0.1 µM, first compound 0.3 µM) was 32.2%. For the same molecule, the viability, T/C (second compound 0.1 µM, first compound 0.949 µM) was 5.98%, the viability, T/C (second compound 0.1 µM, first compound 3 µM) was 1.51% and the viability, T/C (second compound 0.316 µM, first compound 0.00949 µM) was 82.5%. It also gave a viability, T/C (second compound 0.316 µM, first compound 0.03 µM) of 33.9%, a viability, T/C (second compound 0.316 µM, first compound 0.0949 µM) of 40% and a viability, T/C (second compound 0.316 µM, first compound 0.3 µM) of 26.1%. For the same molecule, the viability, T/C (second compound 0.316 µM, first compound 0.949 µM) was 4.21%, the viability, T/C (second compound 0.316 µM, first compound 3 µM) was 1.39% and the viability, T/C (second compound 1 µM, first compound 0.00949 µM) was 76.1%. It also gave a viability, T/C (second compound 1 µM, first compound 0.03 µM) of 31.1%, a viability, T/C (second compound 1 µM, first compound 0.0949 µM) of 39% and a viability, T/C (second compound 1 µM, first compound 0.3 µM) of 22.8%. It also gave a viability, T/C (second compound 1 µM, first compound 0.949 µM) of 3.44%, a viability, T/C (second compound 1 µM, first compound 3 µM) of 2.06% and a viability, T/C (second compound 3.16 µM, first compound 0.00949 µM) of 68.8%. It also gave a viability, T/C (second compound 3.16 µM, first compound 0.03 µM) of 28.7%, a viability, T/C (second compound 3.16 µM, first compound 0.0949 µM) of 40.2% and a viability, T/C (second compound 3.16 µM, first compound 0.3 µM) of 20%. The viability, T/C (second compound 3.16 µM, first compound 0.949 µM) was 3.6%, the viability, T/C (second compound 3.16 µM, first compound 3 µM) was 2.13% and the viability, T/C (second compound 10 µM, first compound 0.00949 µM) was 57.5%. The viability, T/C (second compound 10 µM, first compound 0.03 µM) was 28.1%, the viability, T/C (second compound 10 µM, first compound 0.0949 µM) was 34.1% and the viability, T/C (second compound 10 µM, first compound 0.3 µM) was 14.8%. It also gave a viability, T/C (second compound 10 µM, first compound 0.949 µM) of 2.21% and a viability, T/C (second compound 10 µM, first compound 3 µM) of 1.35%.

`Nc1ncn(C2CC(O)C(CO)O2)c(=O)n1` (stereo not given) + NC1CC1c1ccc(-c2cccc(O)c2)cc1 was tested, and the IC50 (second compound 0.1 µM) was > 1000 nM, the IC50 (second compound 0.316 µM) was > 1000 nM and the IC50 (second compound 1 µM) was 988 nM. For the same molecule, the IC50 (second compound 3.16 µM) was 772 nM, the IC50 (second compound 10 µM) was 166 nM and the viability, T/C (second compound 0.1 µM, first compound 0.00316 µM) was 106%. The viability, T/C (second compound 0.1 µM, first compound 0.01 µM) was 104%, the viability, T/C (second compound 0.1 µM, first compound 0.0316 µM) was 99.4% and the viability, T/C (second compound 0.1 µM, first compound 0.1 µM) was 89.7%. The viability, T/C (second compound 0.1 µM, first compound 0.316 µM) was 72.8%, the viability, T/C (second compound 0.1 µM, first compound 1 µM) was 65.1% and the viability, T/C (second compound 0.316 µM, first compound 0.00316 µM) was 101%. It also gave a viability, T/C (second compound 0.316 µM, first compound 0.01 µM) of 104%, a viability, T/C (second compound 0.316 µM, first compound 0.0316 µM) of 97.5% and a viability, T/C (second compound 0.316 µM, first compound 0.1 µM) of 86.1%. It also gave a viability, T/C (second compound 0.316 µM, first compound 0.316 µM) of 67.2%, a viability, T/C (second compound 0.316 µM, first compound 1 µM) of 55.6% and a viability, T/C (second compound 1 µM, first compound 0.00316 µM) of 101%. The viability, T/C (second compound 1 µM, first compound 0.01 µM) was 102%, the viability, T/C (second compound 1 µM, first compound 0.0316 µM) was 95.9% and the viability, T/C (second compound 1 µM, first compound 0.1 µM) was 85%. For the same molecule, the viability, T/C (second compound 1 µM, first compound 0.316 µM) was 62.5%, the viability, T/C (second compound 1 µM, first compound 1 µM) was 50% and the viability, T/C (second compound 3.16 µM, first compound 0.00316 µM) was 102%. The viability, T/C (second compound 3.16 µM, first compound 0.01 µM) was 97.9%, the viability, T/C (second compound 3.16 µM, first compound 0.0316 µM) was 95.9% and the viability, T/C (second compound 3.16 µM, first compound 0.1 µM) was 80.4%. For the same molecule, the viability, T/C (second compound 3.16 µM, first compound 0.316 µM) was 58.4%, the viability, T/C (second compound 3.16 µM, first compound 1 µM) was 47.6% and the viability, T/C (second compound 10 µM, first compound 0.00316 µM) was 96.9%. For the same molecule, the viability, T/C (second compound 10 µM, first compound 0.01 µM) was 89.1%, the viability, T/C (second compound 10 µM, first compound 0.0316 µM) was 77.4% and the viability, T/C (second compound 10 µM, first compound 0.1 µM) was 58.7%. It also gave a viability, T/C (second compound 10 µM, first compound 0.316 µM) of 38.8% and a viability, T/C (second compound 10 µM, first compound 1 µM) of 31.9%.
